Results as given in patent US20250255889A1, “METHODS FOR TREATMENT SELECTION FOR CHRONIC LYMPHOCYTIC LEUKEMIA (CLL)” (The Broad Institute, Inc., priority 2022, published 2025).

What was measured:
[1] = test system: primary CLL samples (CD19+ and CD5+ cells); experiment: High-throughput dynamic BH3 profiling (HT-DBP): drug-induced apoptotic priming (delta priming), cytochrome c release after BH3 peptide; format: cell-based, human
In short: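 Primary CLL cells (CD19+/CD5+) are treated with the agent or DMSO carrier, then briefly exposed to a fixed concentration of a promiscuous BH3 peptide such as BIM. Mitochondrial cytochrome c release serves as the priming surrogate. Delta priming is drug-treated priming minus DMSO-treated priming, run in high-throughput format.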

[2] = test system: healthy PBMCs (normal cell types CD14, CD19, CD3); experiment: HT-DBP delta priming in healthy donor normal cells; format: cell-based, human; settings: normal peripheral blood mononuclear cells
Procedure: FIG. 17 provides a heatmap showing median delta priming across healthy donors for the indicated normal cell types (CD14, CD19, and CD3).
The assay was robust, as indicated by an 0.92 median Pearson correlation across replicates (FIGS. 5A, 5B, 6A, and 6B). Additionally, the majority of drugs had greater effect on CLL samples than on healthy PBMCs (p<0.001, paired t-test), supporting their specificity (FIGS. 7A-7C).
Delta-priming was measured for the molecular features listed along the top of FIGS. 14, 17, and 32 using the HT-DBP screen. The molecular features included IGHV subtypes, epitypes, expression subtypes (i.e., expression clusters), mutations in driver genes, and recurrent copy-number events. A feature was included in the heatmap of FIG. 14 only if at least 2 patients in a DBP screen had the feature. Median delta-priming was computed across all BH3 peptides and across all patients within the feature. […] Plots showing molecular features for groups of 65 and 81 patients were also compiled (see FIGS. 19, 20).

priming response in normal cell groups [2]: minimal priming response
SMILES: CC1(C)CCC(c2ccc(Cl)cc2)=C(CN2CCN(c3ccc(C(=O)NS(=O)(=O)c4ccc(N[C@H](CCN5CCOCC5)CSc5ccccc5)c(S(=O)(=O)C(F)(F)F)c4)cc3)CC2)C1 [Navitoclax, navitoclax]
priming in CLL groups ([1]; CLL sample groups compared with normal PBMCs): potentially therapeutically relevant priming
drug-induced apoptotic priming by expression cluster ([1]; EC-i): more sensitive to navitoclax than any other drug
drug-induced apoptotic priming by expression cluster ([1]; EC-u2 (U-CLL)): most sensitive
direction ([1]; Feature EC-m2): Resistant
direction ([1]; Feature M-CLL): Sensitive
direction ([1]; Feature U-CLL): Resistant
direction ([1]; Feature n-CLL): Resistant
drug-induced apoptotic priming ([1]; across CLL subtypes, 65 primary CLL samples, 20 hours drug): high priming
direction ([1]; peptide BAD 0.3 uM, feature EC-m3): Sensitive
direction ([1]; peptide BAD 0.3 uM, feature EC-u1): Resistant
direction ([1]; peptide BAD 0.3 uM, feature M-CLL): Sensitive
direction ([1]; peptide BAD 0.3 uM, feature U-CLL): Resistant
direction ([1]; peptide BAD 0.3 uM, feature loss_3p21.31): Sensitive
direction ([1]; peptide BAD 0.3 uM, feature loss_5p15.33): Sensitive
direction ([1]; peptide BAD 0.3 uM, feature loss_7q36.1): Sensitive
direction ([1]; peptide BAD 0.3 uM, feature loss_8p): Sensitive
direction ([1]; peptide BAD 0.3 uM, feature loss_12p13.31a): Sensitive
direction ([1]; peptide BAD 0.3 uM, feature loss_14q32.12): Sensitive
direction ([1]; peptide BAD 0.3 uM, feature loss_17p13.3): Sensitive
direction ([1]; peptide BAD 0.3 uM, feature n-CLL): Resistant
direction ([1]; peptide BIM 0.01 uM, feature loss_3p21.31): Sensitive
direction ([1]; peptide BIM 0.01 uM, feature loss_7q36.1): Sensitive
direction ([1]; peptide BIM 0.01 uM, feature loss_8p): Sensitive
direction ([1]; peptide BIM 0.01 uM, feature loss_14q32.12): Sensitive
direction ([1]; peptide MS1 2.5 uM, feature MYD88): Sensitive
direction ([1]; peptide MS1 2.5 uM, feature gain_16p11.2): Sensitive
direction ([1]; peptide MS1 2.5 uM, feature loss_3p21.31): Sensitive
direction ([1]; peptide MS1 2.5 uM, feature loss_7q36.1): Sensitive
direction ([1]; peptide MS1 2.5 uM, feature loss_8p): Sensitive
direction ([1]; peptide MS1 2.5 uM, feature loss_14q32.12): Sensitive
direction ([1]; peptide PUMA 1 uM, feature EC-m2): Resistant
direction ([1]; peptide PUMA 1 uM, feature EC-m4): Sensitive
direction ([1]; peptide PUMA 1 uM, feature loss_6q21): Resistant
direction ([1]; peptide PUMA 1 uM, feature loss_14q32.12): Sensitive
